Values of other authors as cited in patent US11648240B2, “Pharmaceutical composition comprising famotidine, lidocaine and melatonin” (Cellix Bio Private Limited, priority 2021, dated 2023).

What was measured:
[1] = test system: sars-cov-2; settings: in-vitro studies
[2] = test system: human immunodeficiency virus; settings: in-vitro studies
[3] = target: CYP1A2 (Homo sapiens, UniProt P05177); settings: stated as believed, no test described
Sequence of CYP1A2 (P05177 whole entry, species assumed): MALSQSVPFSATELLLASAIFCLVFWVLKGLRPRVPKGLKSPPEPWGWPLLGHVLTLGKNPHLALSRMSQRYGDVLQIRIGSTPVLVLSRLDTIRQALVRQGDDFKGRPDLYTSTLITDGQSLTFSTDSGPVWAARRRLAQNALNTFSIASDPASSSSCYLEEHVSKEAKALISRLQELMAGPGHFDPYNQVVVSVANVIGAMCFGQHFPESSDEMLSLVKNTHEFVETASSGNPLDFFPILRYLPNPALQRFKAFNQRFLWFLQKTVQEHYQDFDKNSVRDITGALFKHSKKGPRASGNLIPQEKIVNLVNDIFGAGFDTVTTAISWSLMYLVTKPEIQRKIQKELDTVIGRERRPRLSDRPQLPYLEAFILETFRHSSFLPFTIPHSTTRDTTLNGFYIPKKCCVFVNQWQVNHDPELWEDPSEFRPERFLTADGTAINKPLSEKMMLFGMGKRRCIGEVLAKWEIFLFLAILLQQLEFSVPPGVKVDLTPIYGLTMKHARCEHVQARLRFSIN

SMILES: NC(N)=Nc1nc(CSCCC(N)=NS(N)(=O)=O)cs1 [Famotidine]
- sars-cov-2 replication [1]: inhibits
- human immunodeficiency virus replication [2]: inhibits
- metabolism through Cytochrome P450 system (CYP1A2) [3]: 25-30%
